Measurements reported in PubChem BioAssay (NCI).
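Interpolation was linear, between the two tested concentrations surrounding the appropriate level; five concentrations were tested over 48 hours in 96-well plates. The concentration for 50% growth inhibition is given as GI50. At the TGI there is no net growth.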

Experiments:
Test in all cases: growth of human tumour cells (NCI), 48 h
K-562 leukemia = test system: K-562 leukemia
OVCAR-5 ovarian = test system: OVCAR-5 ovarian
HS 578T breast = test system: HS 578T breast
MCF7 breast = test system: MCF7 breast
SW-620 colon = test system: SW-620 colon
OVCAR-8 ovarian = test system: OVCAR-8 ovarian
NCI-H460 lung = test system: NCI-H460 lung
ACHN renal = test system: ACHN renal
CAKI-1 renal = test system: CAKI-1 renal
SN12C renal = test system: SN12C renal
OVCAR-3 ovarian = test system: OVCAR-3 ovarian
NCI-H522 lung = test system: NCI-H522 lung
HCT-15 colon = test system: HCT-15 colon
IGROV1 ovarian = test system: IGROV1 ovarian
HL-60(TB) leukemia = test system: HL-60(TB) leukemia
EKVX NSCLC = test system: EKVX NSCLC
SR leukemia = test system: SR leukemia
PC-3 prostate = test system: PC-3 prostate
SK-OV-3 ovarian = test system: SK-OV-3 ovarian
RPMI-8226 leukemia = test system: RPMI-8226 leukemia
SF-268 CNS = test system: SF-268 CNS
UACC-62 melanoma = test system: UACC-62 melanoma
HCT-116 colon = test system: HCT-116 colon
CCRF-CEM leukemia = test system: CCRF-CEM leukemia
HOP-92 NSCLC = test system: HOP-92 NSCLC
BT-549 breast = test system: BT-549 breast
T-47D breast = test system: T-47D breast
KM12 colon = test system: KM12 colon
SNB-19 CNS = test system: SNB-19 CNS
HCC-2998 colon = test system: HCC-2998 colon
A498 renal = test system: A498 renal
SK-MEL-28 melanoma = test system: SK-MEL-28 melanoma
COLO 205 colon = test system: COLO 205 colon
SK-MEL-2 melanoma = test system: SK-MEL-2 melanoma
MOLT-4 leukemia = test system: MOLT-4 leukemia
A549 NSCLC = test system: A549 NSCLC
UACC-257 melanoma = test system: UACC-257 melanoma
NCI-H23 lung = test system: NCI-H23 lung
M14 melanoma = test system: M14 melanoma
MALME-3M melanoma = test system: MALME-3M melanoma
NCI-H226 lung = test system: NCI-H226 lung
UO-31 renal = test system: UO-31 renal
DU-145 prostate = test system: DU-145 prostate
MDA-MB-435 = test system: MDA-MB-435
SF-295 CNS = test system: SF-295 CNS
786-0 renal = test system: 786-0 renal
MDA-MB-231 breast = test system: MDA-MB-231 breast
NCI/ADR-RES ovarian = test system: NCI/ADR-RES ovarian
TK-10 renal = test system: TK-10 renal
RXF 393 renal = test system: RXF 393 renal
HOP-62 NSCLC = test system: HOP-62 NSCLC
U251 CNS = test system: U251 CNS
SF-539 CNS = test system: SF-539 CNS
HT29 colon = test system: HT29 colon
SNB-75 CNS = test system: SNB-75 CNS
OVCAR-4 ovarian = test system: OVCAR-4 ovarian

CN1CC[C@@H](c2c(O)cc(O)c3c(=O)cc(-c4ccccc4Cl)oc23)[C@@H]1CO
GI50 (K-562 leukemia): 297 nM | TGI (K-562 leukemia): > 2580 nM | GI50 (OVCAR-5 ovarian): 287 nM | TGI (OVCAR-5 ovarian): > 10000 nM | GI50 (HS 578T breast): 233 nM | TGI (HS 578T breast): 1000 nM | GI50 (MCF7 breast): 241 nM | TGI (MCF7 breast): > 10000 nM | GI50 (SW-620 colon): 276 nM | TGI (SW-620 colon): > 10000 nM | GI50 (OVCAR-8 ovarian): 321 nM | TGI (OVCAR-8 ovarian): > 10000 nM | GI50 (NCI-H460 lung): 318 nM | TGI (NCI-H460 lung): > 10000 nM | GI50 (ACHN renal): 294 nM | TGI (ACHN renal): > 10000 nM | GI50 (CAKI-1 renal): 204 nM | TGI (CAKI-1 renal): > 2560 nM | GI50 (SN12C renal): 299 nM | TGI (SN12C renal): > 10000 nM | GI50 (OVCAR-3 ovarian): 278 nM | TGI (OVCAR-3 ovarian): 2170 nM | GI50 (NCI-H522 lung): 357 nM | TGI (NCI-H522 lung): 2760 nM | GI50 (HCT-15 colon): 351 nM | TGI (HCT-15 colon): > 10000 nM | GI50 (IGROV1 ovarian): 282 nM | TGI (IGROV1 ovarian): > 10000 nM | GI50 (HL-60(TB) leukemia): 313 nM | TGI (HL-60(TB) leukemia): 1990 nM | GI50 (EKVX NSCLC): 372 nM | TGI (EKVX NSCLC): > 8020 nM | GI50 (SR leukemia): 107 nM | TGI (SR leukemia): 573 nM | GI50 (PC-3 prostate): 314 nM | TGI (PC-3 prostate): 3640 nM | GI50 (SK-OV-3 ovarian): 1400 nM | TGI (SK-OV-3 ovarian): 9910 nM | GI50 (RPMI-8226 leukemia): 362 nM | TGI (RPMI-8226 leukemia): 2730 nM | GI50 (SF-268 CNS): 305 nM | TGI (SF-268 CNS): 1380 nM | GI50 (UACC-62 melanoma): 184 nM | TGI (UACC-62 melanoma): 578 nM | GI50 (HCT-116 colon): 200 nM | TGI (HCT-116 colon): > 10000 nM | GI50 (CCRF-CEM leukemia): 259 nM | TGI (CCRF-CEM leukemia): > 3130 nM | GI50 (HOP-92 NSCLC): 190 nM | TGI (HOP-92 NSCLC): 701 nM | GI50 (BT-549 breast): 380 nM | TGI (BT-549 breast): 2520 nM | GI50 (T-47D breast): 245 nM | TGI (T-47D breast): 1100 nM | GI50 (KM12 colon): 254 nM | TGI (KM12 colon): > 9000 nM | GI50 (SNB-19 CNS): 344 nM | TGI (SNB-19 CNS): > 10000 nM | GI50 (HCC-2998 colon): 360 nM | TGI (HCC-2998 colon): 3670 nM | GI50 (A498 renal): 215 nM | TGI (A498 renal): 553 nM | GI50 (SK-MEL-28 melanoma): 270 nM | TGI (SK-MEL-28 melanoma): 1240 nM | GI50 (COLO 205 colon): 262 nM | TGI (COLO 205 colon): 785 nM | GI50 (SK-MEL-2 melanoma): 228 nM | TGI (SK-MEL-2 melanoma): 594 nM | GI50 (MOLT-4 leukemia): 295 nM | TGI (MOLT-4 leukemia): > 3790 nM | GI50 (A549 NSCLC): 368 nM | TGI (A549 NSCLC): > 10000 nM | GI50 (UACC-257 melanoma): 296 nM | TGI (UACC-257 melanoma): 1360 nM | GI50 (NCI-H23 lung): 288 nM | TGI (NCI-H23 lung): 3030 nM | GI50 (M14 melanoma): 331 nM | TGI (M14 melanoma): 1260 nM | GI50 (MALME-3M melanoma): 361 nM | TGI (MALME-3M melanoma): 1580 nM | GI50 (NCI-H226 lung): 239 nM | TGI (NCI-H226 lung): 878 nM | GI50 (UO-31 renal): 268 nM | TGI (UO-31 renal): > 2990 nM | GI50 (DU-145 prostate): 365 nM | TGI (DU-145 prostate): > 10000 nM | GI50 (MDA-MB-435): 271 nM | TGI (MDA-MB-435): 1100 nM | GI50 (SF-295 CNS): 335 nM | TGI (SF-295 CNS): > 10000 nM | GI50 (786-0 renal): 339 nM | TGI (786-0 renal): > 10000 nM | GI50 (MDA-MB-231 breast): 292 nM | TGI (MDA-MB-231 breast): > 10000 nM | GI50 (NCI/ADR-RES ovarian): 1570 nM | TGI (NCI/ADR-RES ovarian): > 10000 nM | GI50 (TK-10 renal): 293 nM | TGI (TK-10 renal): > 10000 nM | GI50 (RXF 393 renal): 192 nM | TGI (RXF 393 renal): 430 nM | GI50 (HOP-62 NSCLC): 304 nM | TGI (HOP-62 NSCLC): 1200 nM | GI50 (U251 CNS): 258 nM | TGI (U251 CNS): > 10000 nM | GI50 (SF-539 CNS): 275 nM | TGI (SF-539 CNS): 863 nM | GI50 (HT29 colon): 442 nM | TGI (HT29 colon): 6660 nM | GI50 (SNB-75 CNS): 224 nM | TGI (SNB-75 CNS): 622 nM | GI50 (OVCAR-4 ovarian): 709 nM | TGI (OVCAR-4 ovarian): > 9290 nM
